# Laboratory results: patent EP0922455A1, “HIV-1 PROTEASE INHIBITORS, PROCESS FOR PRODUCING THE SAME, AND MEDICINAL COMPOSITIONS” (NISSUI PHARMACEUTICAL CO., LTD., priority 1997, dated 1998)
# *1 amine or outer side, *2 acyl side, *3 side chain or, on linkers, in order; H or OH if unused. Where a SMILES comes first, the peptide text is derived from it. Where no end group is shown, it is not given here. [ ]: non-standard residue; d: D form. The star is where a group is joined. Myristoyl = CCCCCCCCCCCCCC(=O)*; Suc = O=C(CCC(=O)[*:2])[*:1]; Aoc = NCCCCCCCC(=O)O; Ahx = NCCCCCC(=O)O
# Molecular target: T1, HIV-1 protease (Human immunodeficiency virus type 1 group M subtype B, UniProt P03366)
# Assay: inhibitory activity against HIV-1 protease (cleavage of substrate Suc-Ser-Gln-Asn-Tyr-Pro-Ile-Val-Gln, HPLC / PICO-TAG analysis)
# Assay type: biochemical
# Parameters: β-galactosidase (fusion partner in the expressed precursor); made in house; host or cells: E. coli K12 (UT481)
# Settings: class symbols, inhibitory effect at 500 µM or less; read-out: IC50(µM) (Inhibitory effect)
# Method: (§1) Plasmid pLB550-1 for expressing a fusion protein of partial pol protein containing HIV-1 protease and β-galactosidase was transfected into E. coli K12 (UT481) [Werman, K. F. et al. J. Bacteriol, 163: 376 - 384 (1985)] by the CaCl2 method, and was enzyme-induced by isopropyl-β-D(-)-thiogalactopyranoside and was cultured for 6 hours. Thereafter, the bacteria were collected. The bacterial were treated with lysozyme and crashed with glass beads. Subsequently, the solubilized supernatant was purified by DEAE-cellulofine, SP-Toyopearl and pepstatin A agarose column chromatography, to obtain a purified HIV-1 protease.
# Synthesized peptide composed of Suc-Ser-Gln-Asn-Tyr-Pro-Ile-Val-Gln as a substrate was dissolved into 50 mM MES-NaOH buffer solution (pH 5.5) so that its concentration in enzyme reaction would be 0.57 mM, 1.25 mM, 1.43 mM, 1.67 mM and 2.0 mM. Into 50 µl of these substrate solutions, 50 µl of the purified enzyme solution of HIV-1 protease, obtained in the aforementioned preparing step, was added and then enzyme reaction was carried out at 37°C for 0 , 5, 10 and 15 minutes, respectively. To these solutions, 11.1 µl of acetonitryl containing 1% TFA was added to stop the enzyme reaction. The peptides obtained by the enzyme reaction were separated by high-performance liquid chromatography. Thereafter, enzyme activity thereof was measured by means of a PICO-TAG amino acid composition analyzing device. The initial velocities at the respective concentrations of the substrate were calculated and then analysis was performed based on by Lineweaver-Burk plots. […] In the substrate, the cleavage region was between Tyr and Pro.
# On the other hand, the synthesized peptide, Suc-Ser-Gln-Asn-Tyr-Pro-Ile-Val-Gln as a substrate was used to measure inhibitory activity of the peptide of the sequence number 1 against HIV-1 protease as follows: 50 µl of the enzyme solution was added to 30 µl of solution of the peptide of the sequence number 1 in which the peptide was dissolved into 50 mM of MES-NaOH buffer solution (pH 5.5) so that its final concentration would be 10, 20, 40, 100 and 200 µM, and then enzyme reaction was carried out at 37 °C for 30 minutes.
# Next, the solution of the substrate, Suc-Ser-Gln-Asn-Tyr-Pro-Ile-Val-Gln was added thereto so that its final concentration would be 1 mM, and then enzyme reaction was carried out at 37 °C for 0, 5, 10 and 15 minutes. To these solutions, 11.1 µl of acetonitryl containing 1% TFA was added to stop the enzyme reaction. The peptides obtained by the enzyme reaction were separated by high-performance liquid chromatography. Thereafter, enzyme activity thereof was measured by means of a PICO-TAG amino acid composition analyzing device. […] (The relative activity is represented as a percentage relative to the enzyme activity (value: 100) in the absence of the peptide of the sequence number 2.) From this graph, IC50 was calculated and obtained, so that IC50 was 10 µM.
# 50 µl of the enzyme solution was added to 30 µl of the peptide of the sequence number 2 dissolved into 50 mM of MES-NaOH buffer solution so that its final concentration would be 10 µM and then enzyme reaction was carried out at 37 °C for 30 minutes. The solution of the substrate, Suc-Ser-Gln-Asn-Tyr-Pro-Ile-Val-Gln was added thereto so that its final concentration would be 0.579 1.0, 1.43, 2.0 and 2.5 mM, and then enzyme reaction was carried out at 37 °C for 0, 5, 10 and 15 minutes. To these solutions, 11.1 µl of acetonitryl containing 1% TFA was added to stop the enzyme reaction, and then analysis was performed from Lineweaver-Burk plots. […] A control experiment was carried out in the absence of the peptide of the sequence number 2, in the same way.
# (§2) Concerning these 30 kinds of compounds, inhibitory effect against of HIV protease and IC50 were measured in the same way as in 2) in Example 1.
row,Compound,IC50 [µM]
1,"CC[C@H](C)[C@H](NC(=O)[C@@H](NC(=O)[C@H](C)NC(=O)[C@@H]1CCCN1C(=O)[C@H](CC(N)=O)NC(=O)[C@@H](NC(=O)[C@@H](NC(=O)[C@H](CCC(N)=O)NC(=O)[C@H](CO)NC(=O)[C@H](CCSC)NC(=O)[C@H](C)NC(=O)[C@H](CCC(=O)O)NC(=O)[C@H](C)N)C(C)C)[C@@H](C)O)[C@@H](C)O)C(=O)N[C@@H](CCSC)C(=O)O [Compound 3, AEAMSQVTNPATIM]",≥ 500
2,"CC[C@H](C)[C@H](NC(=O)[C@@H](NC(=O)[C@H](C)NC(=O)[C@@H](NC(=O)[C@H](CC(N)=O)NC(=O)[C@@H](NC(=O)[C@@H](NC(=O)[C@H](CCC(N)=O)NC(=O)[C@H](CO)NC(=O)[C@H](CCSC)NC(=O)[C@H](C)NC(=O)[C@H](CCC(=O)O)NC(=O)[C@H](C)N)C(C)C)[C@@H](C)O)[C@@H](C)O)[C@@H](C)O)C(=O)N[C@@H](CCSC)C(=O)O [Compound 4, AEAMSQVTNTATIM]",≤ 500
3,"CSCC[C@H](NC(=O)[C@H](C)NC(=O)[C@H](CCC(=O)O)NC(=O)[C@H](C)N)C(=O)N[C@@H](CO)C(=O)N[C@@H](CCC(N)=O)C(=O)NCCCCCCCC(=O)O [Compound 14, AEAMSQAoc] (H-AEAMSQ[Aoc]-OH)",≥ 500
4,"CSCC[C@H](NC(=O)[C@H](C)NC(=O)[C@H](CCC(=O)O)NC(=O)[C@H](C)N)C(=O)N[C@@H](CO)C(=O)N[C@@H](CCC(N)=O)C(=O)NCCCCCC(=O)O [Compound 15, AEAMSQAhx] (H-AEAMSQ[Ahx]-OH)",≥ 500
5,"CSCC[C@H](NC(=O)[C@H](C)NC(=O)[C@H](CCC(=O)O)NC(=O)[C@H](C)NC(=O)CCC(=O)O)C(=O)N[C@@H](CO)C(=O)N[C@@H](CCC(N)=O)C(=O)NCCCCCC(=O)O [Compound 16, Suc-AEAMSQAhx] (Suc-AEAMSQ[Ahx]-OH)",≥ 500
6,"CSCC[C@H](NC(=O)[C@H](C)NC(=O)[C@H](CCC(=O)O)NC(=O)[C@H](C)N)C(=O)O [Compound 19, AEAM] (H-AEAM-OH)",≥ 500
7,"CC(C)[C@H](N)C(=O)N[C@H](C(=O)N[C@@H](CC(N)=O)C(=O)O)[C@@H](C)O [Compound 21, VTN] (H-Val-Thr-Asn-OH)",≥ 500
8,"CSCC[C@H](NC(=O)CCCCCCCN)C(=O)O [Compound 27, N-AocM]",≥ 500
9,"CSCC[C@H](NC(=O)CCCCCCCN)C(=O)NCCCCCCCC(=O)O [Compound 28, N-AocMAoc]",≥ 500
10,"CSCC[C@H](NC(=O)CCCCCCCN)C(=O)NCCCCCCCC(=O)NCCCCCCCC(=O)O [Compound 29, N-AocMAocAoc]",≥ 500
11,"CSCC[C@H](NC(=O)CCCCCCCNC(=O)CCCCCCCN)C(=O)NCCCCCCCC(=O)O [Compound 30, N-AocAocMAoc]",≥ 500
12,"AAAMSQVTN [Compound 7, AAAMSQVTN]",≤ 500
13,"AEAASQVTN [Compound 8, AEAASQVTN]",≥ 500
14,"AEAMAQVTN [Compound 9, AEAMAQVTN]",≤ 500
15,"AEAMSQ [Compound 17, AEAMSQ]",≥ 500
16,"AEAMSQV [Compound 13, AEAMSQV]",≥ 500
17,"AEAMSQVAN [Compound 10, AEAMSQVAN]",≥ 500
18,"AEAMSQVANTATIM [Compound 5, AEAMSQVANTATIM]",≤ 500
19,"AEAMSQVT [Compound 12, AEAMSQVT]",≥ 500
20,"VTNTATIM [Compound 22, VTNTATIM]",≥ 500

# Same assay, conditions: same way as in 2) in Example 1; read-out: IC50
row,Compound,IC50 [µM]
1,"CCCCCCCCCCCCCC(=O)N[C@@H](C)C(=O)N[C@@H](CCC(=O)O)C(=O)N[C@@H](C)C(=O)N[C@@H](CCSC)C(=O)N[C@@H](CO)C(=O)N[C@@H](CCC(N)=O)C(=O)O [Compound 18, N-Myr-AEAMSQ] (Myristoyl-AEAMSQ-OH)",79
2,"CCCCCCCCCCCCCC(=O)N[C@@H](C)C(=O)N[C@@H](CCC(=O)O)C(=O)N[C@@H](C)C(=O)N[C@@H](CCSC)C(=O)O [Compound 20, N-Myr-AEAM] (Myristoyl-AEAM-OH)",16
3,"AEAMSQVTL [Compound 11, AEAMSQVTL]",53
4,"AEAMSQVTN [Compound 6, AEAMSQVTN]",6
5,"AEAMSQVTNSATIM [Compound 2, AEAMSQVTNSATIM]",22

# Same assay, conditions: substrate 0.57-2.0 mM, pH 5.5, 37°C, Lineweaver-Burk plots (Fig. 1)
row,Compound,Km [µM]
1,"CC[C@H](C)[C@H](NC(=O)[C@@H]1CCCN1C(=O)[C@H](Cc1ccc(O)cc1)NC(=O)[C@H](CC(N)=O)NC(=O)[C@H](CCC(N)=O)NC(=O)[C@H](CO)NC(=O)CCC(=O)O)C(=O)N[C@H](C(=O)N[C@@H](CCC(N)=O)C(=O)O)C(C)C [Suc-Ser-Gln-Asn-Tyr-Pro-Ile-Val-Gln, reference compound] (Suc-SQNYPIVQ-OH)",2200

# Molecular target: T1, HIV-1 protease
# Assay: not given
# Parameters: β-galactosidase (fusion partner in the expressed precursor); made in house; host or cells: E. coli K12 (UT481)
# Settings: Biochem. Biophys. Res. Commun. 194: 595 - 600; cited from earlier work
row,Compound,inhibitory activity
1,Ac-TVSFNF,has inhibitory activity

# Molecular target: T1, HIV-1 protease
# Assay: inhibitory activity against HIV-1 protease (cleavage of substrate Suc-Ser-Gln-Asn-Tyr-Pro-Ile-Val-Gln, HPLC / PICO-TAG analysis)
# Assay type: biochemical
# Parameters: partial pol protein containing HIV-1 protease; β-galactosidase (fusion partner in the expressed precursor); made in house; host or cells: E. coli K12 (UT481)
# Settings: same way as in 2) in Example 1
# Method: as §1
# Synthesized peptide composed of Suc-Ser-Gln-Asn-Tyr-Pro-Ile-Val-Gln as a substrate was dissolved into 50 mM MES-NaOH buffer solution (pH 5.5) so that its concentration in enzyme reaction would be 0.57 mM, 1.25 mM, 1.43 mM, 1.67 mM and 2.0 mM. […] Thereafter, enzyme activity thereof was measured by means of a PICO-TAG amino acid composition analyzing device. The initial velocities at the respective concentrations of the substrate were calculated and then analysis was performed based on by Lineweaver-Burk plots. […]
# as §2
row,Compound,IC50 [µM]
1,"CCCCCCCCCCCCCC(=O)N[C@@H](CCSC)C(=O)O [Compound 23, N-Myr-M]",44
2,"CCCCCCCCCCCC(=O)N[C@@H](CCSC)C(=O)O [Compound 25, N-Lau-M]",124
